Test results from patent US20090143311A1, “Compositions comprising tripeptides inhibiting ace” (priority 2005, published 2009).

Experiments:
[1] = system: ACE; experiment: at-line ACE inhibition assay; type: biochemical; conditions: HHL substrate, PBS pH 7.4, 60 minutes at 50° C.
From the text: The presence of novel ACE inhibiting peptides in CDBAP was investigated by using 2-dimensional-chromatographic-separation combined with an at-line ACE inhibition assay and mass spectrometry for identification. In the first analysis the peptide mixture was separated on an ODS3 liquid chromatography (LC) column and ACE inhibition profiles were generated from the various fractions obtained. In a second analysis the fractions from the first column showing a high ACE inhibition were further separated on a Biosuite LC column using a different gradient profile. The fractions collected from this second column were split into two parts: one part was used for the at-line ACE inhibition measurement while the other part was subjected to MS and MS-MS analysis to identify the peptides present. […]
The 96 well plate was then analysed on a flash-HPLC-column. […] Hippuric acid (H) and HHL were monitored at 280 nm. The peak heights of H and HHL were measured and the ACE inhibition (ACEI) of each fraction was calculated according to the equation: […]
The Degree of Cleavage was calculated by expressing the peak height of H as a fraction of the sum of the peak heights of H and HHL.

[2] = system: ACE; experiment: modified Matsui ACE inhibition assay; type: biochemical
Procedure: Quantification of MAP and ITP in the various samples was performed on a Micromass Quattro II MS instrument operated in the positive electrospray, multiple reaction monitoring mode. The HPLC method used was similar to the one described above. The MS settings (ESI+) were as follows: cone voltage 37 V, capillary voltage 4 kV, drying gas nitrogen at 300 l/h. Source and nebulizer temperature: 100° C. and 250° C., respectively. The synthesized peptides were used to prepare a calibration line using the precursor ion 318.1 and the summed product ions […] for MAP and using the precursor ion 320.2 and the summed product ions […] for ITP. According to these analyses the novel ACE inhibiting tripeptides MAP and ITP are present in the CDBAP product in quantities corresponding with 2.9 mg MAP/gram CDBAP or 4.8 mg MAP/gram protein in CDBAP and 0.9 mg ITP/gram CDBAP en 1.4 mg ITP/gram protein in CDBAP. […]
Each one of the four samples contained 75 μl 3 mM hippuryl histidine leucine (Hip-His-Leu, Sigma) dissolved in a 250 mM borate solution containing 200 mM NaCl, pH 8.3. […] After incubation for 20 min. at 37° C., 4 ml 4 mM Na2SO3 in 0.2 M NaH2PO4 was added and the light absorbance at 416 nm was measured with UV/Vis spectrophotometer (Shimadzu UV-1601 with a CPS controller, Netherlands). […]

[3] = molecular target: ACE (Homo sapiens, UniProt P12821); conditions: literature (Nakamura 1995; Aryoshi 1993); read-out: IC50 values reported earlier; cited from earlier work
Chain of ACE (Homo sapiens, UniProt P12821) (P12821 30-1306, species assumed): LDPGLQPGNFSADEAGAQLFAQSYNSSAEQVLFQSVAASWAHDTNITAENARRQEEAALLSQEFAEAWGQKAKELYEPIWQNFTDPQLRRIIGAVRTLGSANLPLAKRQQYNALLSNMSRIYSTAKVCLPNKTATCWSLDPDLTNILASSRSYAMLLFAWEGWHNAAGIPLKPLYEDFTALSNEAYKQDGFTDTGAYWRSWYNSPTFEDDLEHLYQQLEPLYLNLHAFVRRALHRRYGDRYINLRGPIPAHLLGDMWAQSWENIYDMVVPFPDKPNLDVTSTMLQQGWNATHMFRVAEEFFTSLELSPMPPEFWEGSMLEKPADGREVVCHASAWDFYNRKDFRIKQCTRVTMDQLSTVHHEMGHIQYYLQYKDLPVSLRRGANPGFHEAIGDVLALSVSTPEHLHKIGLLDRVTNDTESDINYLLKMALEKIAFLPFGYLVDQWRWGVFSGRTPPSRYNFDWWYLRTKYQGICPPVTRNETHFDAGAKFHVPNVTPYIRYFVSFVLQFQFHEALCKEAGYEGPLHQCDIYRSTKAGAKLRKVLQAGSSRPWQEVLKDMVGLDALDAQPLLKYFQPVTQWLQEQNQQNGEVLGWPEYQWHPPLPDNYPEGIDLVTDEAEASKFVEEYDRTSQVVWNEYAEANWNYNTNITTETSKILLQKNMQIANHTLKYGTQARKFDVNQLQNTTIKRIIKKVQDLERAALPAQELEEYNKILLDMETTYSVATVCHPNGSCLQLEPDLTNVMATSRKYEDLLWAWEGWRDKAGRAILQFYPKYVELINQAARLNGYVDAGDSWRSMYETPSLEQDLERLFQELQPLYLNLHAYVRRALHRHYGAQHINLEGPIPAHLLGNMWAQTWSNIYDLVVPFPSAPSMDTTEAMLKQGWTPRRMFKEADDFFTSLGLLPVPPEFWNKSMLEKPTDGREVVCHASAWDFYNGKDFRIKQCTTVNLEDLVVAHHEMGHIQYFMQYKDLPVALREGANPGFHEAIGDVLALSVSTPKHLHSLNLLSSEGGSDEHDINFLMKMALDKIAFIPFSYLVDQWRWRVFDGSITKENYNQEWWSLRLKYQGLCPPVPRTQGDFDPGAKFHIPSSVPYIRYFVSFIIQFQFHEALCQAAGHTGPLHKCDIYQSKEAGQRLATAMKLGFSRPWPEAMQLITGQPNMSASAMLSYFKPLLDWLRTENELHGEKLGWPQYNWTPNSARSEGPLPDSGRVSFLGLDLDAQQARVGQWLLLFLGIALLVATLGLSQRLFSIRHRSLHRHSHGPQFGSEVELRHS

IC50 [1] [µM] | IC50 ([2]; chemically synthesized peptides, Hip-His-Leu, pH 8.3, 37° C., 30 min, read-out: IC50 value Modified Matsui assay) [µM] | IC50 ([2]; read-out: IC50 value in Modified Matsui test) [µM] | Substance | IC50 [3] [µM]
7.1 | 2 | 2 | IPP: known ACE inhibiting tripeptide, kappa-casein f108-110; chemically synthesized IPP used as internal reference | 5
 |  |  | LPP: known ACE inhibiting tripeptide, β-casein f151-153 (UniProt P02666 166-168, looked up, fragment) | 9.6
